These results are taken from article PMC10583824, “The rational design of ARUK2007145, a dual inhibitor of the α and γ isoforms of the lipid kinase phosphatidylinositol 5-phosphate 4-kinase (PI5P4K)” (RSC Medicinal Chemistry, 2023).

For series [1], the system named is PI5P4Kγ+. To be noted: ratio PI5P4Kα IC50 / PI5P4Kγ+ IC50, ADP-Glo.
For the next series, the target named is T1, PI5P4Kα (Homo sapiens, UniProt P48426).
T1 sequence (P48426 1-406): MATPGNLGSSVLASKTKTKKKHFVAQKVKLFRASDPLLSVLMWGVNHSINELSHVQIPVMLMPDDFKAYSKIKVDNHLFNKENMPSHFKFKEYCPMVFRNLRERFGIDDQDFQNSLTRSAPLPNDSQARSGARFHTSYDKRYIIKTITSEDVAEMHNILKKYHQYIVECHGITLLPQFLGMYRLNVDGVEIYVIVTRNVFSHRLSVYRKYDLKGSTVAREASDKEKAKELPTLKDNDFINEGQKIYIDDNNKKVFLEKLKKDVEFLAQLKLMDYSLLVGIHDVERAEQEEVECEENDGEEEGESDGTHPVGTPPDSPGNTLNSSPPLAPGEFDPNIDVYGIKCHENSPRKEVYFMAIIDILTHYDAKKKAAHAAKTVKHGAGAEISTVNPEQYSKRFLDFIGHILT

The target of series [2] is T2, PI5P4Kγ+ (Homo sapiens, UniProt Q8TBX8, D138G/D197E/E133P/E135D/E153T/E196G/G139A/N195G/S132L/S134N).
T2 sequence (Q8TBX8 with tags, fused parts or gaps INS131LPN/S132D/E133S/S134Q/E135A/G136R/D138G/G139A/E153T/N195G/E196G/D197E): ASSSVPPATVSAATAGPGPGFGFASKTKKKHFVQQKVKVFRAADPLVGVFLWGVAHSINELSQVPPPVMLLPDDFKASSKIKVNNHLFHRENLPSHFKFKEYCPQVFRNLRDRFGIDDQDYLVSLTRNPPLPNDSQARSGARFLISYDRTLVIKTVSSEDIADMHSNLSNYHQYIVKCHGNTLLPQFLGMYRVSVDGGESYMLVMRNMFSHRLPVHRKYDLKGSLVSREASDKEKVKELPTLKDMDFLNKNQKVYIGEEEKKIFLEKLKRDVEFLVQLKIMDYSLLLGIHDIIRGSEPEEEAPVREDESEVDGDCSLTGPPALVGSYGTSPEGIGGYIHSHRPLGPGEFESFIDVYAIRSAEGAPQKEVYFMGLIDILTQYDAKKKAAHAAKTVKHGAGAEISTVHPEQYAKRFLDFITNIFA
Kind of series: biochemical.

Series [3] in a line: Turbidimetric aqueous solubility. The format is physicochemical. To be noted: pH 7.4, turbidimetric. How it is done: (§1) ADMET experimental methods […]
Turbidimetric aqueous solubility: analysis was performed by Cyprotex Discovery. Compound in DMSO at 10 mM was serially diluted to solutions of 0.1, 0.3, 1 and 3 mM in DMSO, then further diluted 1 in 100 in buffer (0.01 M PBS, pH 7.4, 1% DMSO final). 7 replicate wells of each dilution were equilibrated for 2 hours at 37 °C before absorbance is measured at 620 nm. The solubility is estimated from the concentration of test compound that produces an increase in absorbance above vehicle control (1% DMSO in buffer). […]

Series [4] is described as follows: Mouse liver microsome stability. Type of series: in vitro ADME. The note with it: mouse liver microsomes half-life; read-out: MLM t½. As for the experimental part:
as §1
Mouse Microsomal stability: analysis was performed by Cyprotex Discovery. Briefly, test compounds in DMSO
protein/mL) in the presence of NADPH (1 mM) at 37 °C. Aliquots were taken at time intervals (0, 5, 15, 30 and
compound remaining, allowing the determination of the half-life for the compound.
On the technique in general: Liver microsomes are vesicles of endoplasmic reticulum, rich in cytochrome P450 enzymes.

The test system of the next series is MDR1 (P-gp). Kind of series: MDR1-MDCK bi-directional permeability and efflux. To be noted: dog, MDCK-MDR1.
Another series relates to MDCK-MDR1 cells. Kind of series: MDR1-MDCK bi-directional permeability and efflux. To be noted: MDCK-MDR1 cells; A2B; 10 µM.

≈ marks a conversion by molar mass, not a printed value.

Protocol for MDCK-MDR1 cells: (§2) MDR1-MDCK Permeability (bi-directional): was performed by Cyprotex Discovery. Briefly, compounds were administered at 10 µM (1% DMSO final) to the apical or basolateral side of a confluent monolayer of MDR1-MDCK cells, then incubated at 37 °C for 60 minutes before appearance on the opposite side of the monolayer was determined LC-MS/MS. The efflux ratio (ER) is calculated from the ratio of B-A to A-B permeabilities.
Protocol for MDR1 (P-gp): as §2

For orientation: IC50 means the concentration needed to halve the response being measured. As usually defined, the solubility is how much of the substance goes into solution per volume. A low value points to little dissolved substance. Usually efflux ratio stands for a quotient of directional permeabilities that is used to spot active efflux. On to `Cc1ncccc1-c1cc2ncnc(Nc3ccc(C4CC4)cc3)c2s1` [Compound 38], for which, in the series with PI5P4Kγ+ [1], the “Fold-selectivity (α IC50/γ IC50)” value was 1.9. Besides, at PI5P4Kα (ADP-Glo, footnote a: inconsistent replicates, value shown is upper limit), the “PI5P4Kα pIC50” value is given as 7.0. Moreover, the “ADP-Glo pIC50 PI5P4Kα” value on PI5P4Kα (Table S1, two decimals, asterisk not explained) came to 7.01. The IC50 was 52.5 nM against PI5P4Kγ+ [2] (ADP-Glo pIC50 PI5P4Kγ+, Table S1, two decimals, asterisk not explained) and 50.1 nM at PI5P4Kγ+ [2] (PI5P4Kγ+ pIC50, ADP-Glo, footnote a: inconsistent replicates, value shown is upper limit). The compound also registered a solubility at 2 h in series [3] of 3 µM (≈ 1.08 µg/mL). For the same compound, the half-life at 1 µM in series [4] amounted to 1.94 min. For the same compound, the efflux ratio at 60 min, 10 µM in the series with MDR1 (P-gp) came out at 0.91. Besides, in the series on MDCK-MDR1 cells, the “P app (A2B)” value is on record as 9.95 10^−6 cm s^−1.
